One may read the AC50 as the midpoint of the concentration-response curve, whichever way the signal moves. What is called IC50 is the concentration needed to halve the response being measured.

In patent US20230167093A1, “COMPOUNDS AND METHODS FOR MODULATING SPLICING” (REMIX THERAPEUTICS INC., priority 2020, published 2023) one finds AC50 and IC50 data, which are given here for 10 molecules.

Molecules are shown by their SMILES. Where only a bound is given, the exact number is not on record here.

What all share (type): cell-based
Assay [1] has as its system HTT CJ mRNA. In words: RT-qPCR splicing assay, HTT canonical junction (CJ) mRNA decrease. As to conditions: A673 or K562 cells, 24 hours compound treatment, top dose 10 uM; concentration having 50% response in CJ decrease. The protocol:
(§1) Compounds described herein were used to modulate RNA transcript abundance in cells. The expression of a target mRNA was measured by detecting the formation of an exon-exon junction in the canonical transcript (CJ). A compound mediated exon-inclusion event was detected by observing an increase in formation of a new junction with an alternative exon (AJ). Real-time qPCR assays were used to detect these splicing switches and interrogate the potency of various compounds towards different target genes. A high-throughput real time quantitative PCR (RT-qPCR) assay was developed to measure these two isoforms of the mRNA (CJ and AJ) for an exemplary gene, HTT, together with a control housekeeping gene, GAPDH or GUSB or PPIA, used for normalization. Briefly, the A673 or K562 cell line was treated with various compounds described herein (e.g., compounds of Formula (I) or (II)). After treatment, the levels of the HTT mRNA targets were determined from each sample of cell lysate by cDNA synthesis followed by qPCR.
(§2) The A673 cell line was cultured in DMEM with 10% FBS. Cells were diluted with full growth media and plated in a 96-well plate (15,000 cells in 100 ul media per well). The plate was incubated at 37° C. with 5% CO2 for 24 hours to allow cells to adhere. An 11-point 3-fold serial dilution of the compounds was made in DMSO then diluted in media in an intermediate plate. Compounds were transferred from the intermediate plate to the cell plate with the top dose at a final concentration of 10 uM in the well. Final DMSO concentration was kept at or below 0.25%. The cell plate was returned to the incubator at 37° C. with 5% CO2 for an additional 24 hours.
(§3) The K562 cell line was cultured in IMDM with 10% FBS. For K562, cells were diluted with full growth media and plated in either a 96-well plate (50,000 cells in 50 uL media per well) or a 384-well plate (8,000-40,000 cells in 45 uL media per well). An 11-point 3-fold serial dilution of the compounds were made in DMSO then diluted in media in an intermediate plate. Compound was transferred from the intermediate plate to the cell plate with the top dose at a final concentration of 10 uM in the well. Final DMSO concentration was kept at or below 0.25%. Final volume was 100 uL for 96-well plate and 50 uL for 384-well plate. The cell plate was then placed in an incubator at 37° C. with 5% CO2 for 24 hours.
(§4) The cells were then gently washed with 50 uL-100 uL cold PBS before proceeding to addition of lysis buffer. 30 uL-50 uL of room temperature lysis buffer with DNAse I (and optionally RNAsin) was added to each well. Cells were shaken/mixed thoroughly at room temperature for 5-10 minutes for lysis to take place and then 3 uL-5 uL of room temperature stop solution was added and wells were shaken/mixed again. After 2-5 minutes, the cell lysate plate was transferred to ice for RT-qPCR reaction setup. The lysates could also be frozen at −80° C. for later use.
(§5) In some cases, a direct lysis buffer was used. An appropriate volume of 3× lysis buffer (10 mM Tris, 150 mM NaCl, 1.5%-2.5% Igepal and 0.1-1 U/uL RNAsin, pH 7.4) was directly added to either K562 or A673 cells in media and mixed by pipetting 3 times. The plates were then incubated at room temperature with shaking/rocking for 20-50 minutes to allow for lysis to take place. After this time, the cell lysate plate was transferred to ice to set up for the RT-qPCR reactions. The lysates could also be frozen at −80° C. for later use.
(§6) To set up 10 uL RT-qPCR reactions, cell lysates were transferred to 384-well qPCR plates containing the master mix according to the table below. The plates were sealed, gently vortexed, and spun down before the run. The volumes were adjusted accordingly in some instances where the reaction was carried in 20 uL. The table below summarizes the components of the RT-qPCR reactions:
(§7) The RT-qPCR reaction was performed using a QuantStudio (ThermoFisher) under the following fast cycling conditions. […]
A general note: Real-time PCR tracks product formation cycle by cycle.

Assay [2] deals with HTT AJ mRNA. The assay can be described thus: RT-qPCR splicing assay, HTT alternative junction (AJ) mRNA increase. Particulars: A673 or K562 cells, 24 hours compound treatment, top dose 10 uM; concentration having 50% response in AJ increase. On the procedure: as §1, §2, §3, §4, §5, §6, §7
For assay [3], the system named is HTT CJ mRNA. In words: Gene panel canonical junction qPCR assay, HTT. As to conditions: protocol as above, concentration having 50% response in CJ decrease, read-out: HTT IC50 (decrease in CJ mRNA levels). On the procedure:
as §1, §2, §3, §4, §5, §6, §7

In assay [4] the test system is Target C CJ mRNA. The assay can be described thus: Gene panel canonical junction qPCR assay, Target C. Particulars: protocol as above, concentration having 50% response in CJ decrease, read-out: Target C IC50 (decrease in CJ mRNA levels). On the procedure: as §1, §2, §3, §4, §5, §6, §7
For assay [5], the system named is SMN2 CJ mRNA. The assay can be described thus: Gene panel canonical junction qPCR assay, SMN2. Particulars: protocol as above, concentration having 50% response in CJ decrease, read-out: SMN2 IC50 (decrease in CJ mRNA levels). The protocol: as §1, with “After treatment, the levels of the HTT mRNA targets were determined from each sample of cell lysate by cDNA synthesis followed by qPCR.” left out
as §2, §3, §4, §5, §6
The RT-qPCR reaction was performed using a QuantStudio (ThermoFisher) under the following fast cycling conditions. All samples and standards were analyzed at least in duplicate. […]

Regarding `Cc1cc(-c2ccc3c(=O)[nH]c(N4CCN(C)CC4)nc3c2)cc2cn(C)nc12` [Compound 212, 7-(2,7-dimethyl-2H-indazol-5-yl)-2-(4-methylpiperazin-1-yl)quinazolin-4(3H)-one], the AC50 in assay [1] and in assay [2] was 1 to 10 µM in each case. Also, the IC50 in assay [3], in assay [4] and in assay [5] was 1 to 10 µM each time.
Consider `Cc1cn2cc(-n3cnc4ccc(N5CCNCC5)cc4c3=O)cc(F)c2n1` [Compound 195, 3-(8-fluoro-2-methylimidazo[1,2-a]pyridin-6-yl)-6-(piperazin-1-yl)quinazolin-4(3H)-one], for which the AC50 in assay [1] and in assay [2] was above 10 µM throughout. Moreover, the IC50 in assay [3], in assay [4] and in assay [5] was above 10 µM each time.
Take `Cc1cc(-c2ccc3ncn(C4CCNCC4)c(=O)c3c2)cc2cn(C)nc12` [Compound 169, 6-(2,7-dimethyl-2H-indazol-5-yl)-3-(piperidin-4-yl)quinazolin-4(3H)-one]: the AC50 in assay [1] and in assay [2] was above 10 µM in each case. Besides, the half-maximal inhibitory concentration (IC50) in assay [3], in assay [4] and in assay [5] was above 10 µM in each case.
For the molecule `CN1CCC(N(C)c2ccc3ncn(-c4cc(F)c5nn(C)cc5c4)c(=O)c3c2)CC1` [Compound 199, 3-(7-fluoro-2-methyl-2H-indazol-5-yl)-6-(methyl(1-methylpiperidin-4-yl)amino)quinazolin-4(3H)-one], the AC50 in assay [1] and in assay [2] was above 10 µM in each case. The IC50 in assay [3], in assay [4] and in assay [5] was above 10 µM each time.
As for `CN1CCN(c2ccc3ncn(-c4cc(F)c5nn(C)cc5c4)c(=O)c3c2)CC1` [Compound 194, 3-(7-fluoro-2-methyl-2H-indazol-5-yl)-6-(4-methylpiperazin-1-yl)quinazolin-4(3H)-one], the AC50 in assay [1] and in assay [2] was 1 to 10 µM each time. Besides, the IC50 in assay [3], in assay [4] and in assay [5] was 1 to 10 µM in each case.
Turning to `Cc1cc(-c2ccc3c(=O)[nH]c(N4CCNCC4)nc3c2)cc2cn(C)nc12` [Compound 211, 7-(2,7-dimethyl-2H-indazol-5-yl)-2-(piperazin-1-yl)quinazolin-4(3H)-one], the AC50 in assay [1] and in assay [2] was above 10 µM in each case. Also, the IC50 in assay [3], in assay [4] and in assay [5] was above 10 µM each time.
Consider `Cc1cc(-c2ccc3ncn(C4CCN(C)CC4)c(=O)c3c2)cc2cn(C)nc12` [Compound 170, 6-(2,7-dimethyl-2H-indazol-5-yl)-3-(1-methylpiperidin-4-yl)quinazolin-4(3H)-one], for which the AC50 in assay [1] and in assay [2] was above 10 µM each time. The IC50 in assay [3], in assay [4] and in assay [5] was above 10 µM throughout.
`Cc1cn2nc(-n3cnc4ccc(N5CCNCC5)cc4c3=O)cc(C)c2n1` [Compound 201, 3-(2,8-dimethylimidazo[1,2-b]pyridazin-6-yl)-6-(piperazin-1-yl)quinazolin-4(3H)-one]: the AC50 in assay [1] and in assay [2] was above 10 µM in each case. Besides, the IC50 in assay [3], in assay [4] and in assay [5] was above 10 µM each time.
Regarding `CN1[C@H]2CC[C@@H]1C=C(c1ccc3ncn(-c4ccc5nn(C)cc5c4)c(=O)c3c1)C2` [Compound 168, 3-(2-methyl-2H-indazol-5-yl)-6-((1R,5S)-8-methyl-8-azabicyclo[3.2.1]oct-2-en-3-yl)quinazolin-4(3H)-one], the AC50 in assay [1] and in assay [2] was above 10 µM throughout. Moreover, the IC50 in assay [3], in assay [4] and in assay [5] was above 10 µM each time.
On to `Cc1cn2cc(-n3cnc4ccc(N5CCN(C)CC5)cc4c3=O)cc(F)c2n1` [Compound 197, 3-(8-fluoro-2-methylimidazo[1,2-a]pyridin-6-yl)-6-(4-methylpiperazin-1-yl)quinazolin-4(3H)-one], for which the AC50 in assay [1] and in assay [2] was 1 to 10 µM throughout. For the same molecule, the IC50 in assay [3], in assay [4] and in assay [5] was 1 to 10 µM each time.
